Reference: publication PMC10920834, “Synthesis, anticancer activity, and molecular docking of half-sandwich iron(II) cyclopentadienyl complexes with maleimide and phosphine or phosphite ligands” (Scientific Reports, 2024)
Where two headings read alike, the source gives them in different places.

Key:
[1] = system: PBM cells; settings: cited from earlier work; for IC50: studied previously, read-out: IC50 PBM cells (ruthenium analogues)
[2] = system: HL-60 cells; set-up: method as in PMID 26486993; settings: studied previously; read-out: IC50 HL-60 cells (ruthenium analogues); cited from earlier work
[3] = system: doxorubicin-sensitive cells (Colo205); set-up: method as in PMID 37187089; settings: cited from earlier work
[4] = system: doxorubicin-resistant (Colo320) cells; set-up: method as in PMID 37187089; settings: cited from earlier work
[5] = system: HL-60 cells; assay: Alkaline comet assay, HL-60 cells; type: cell-based, human
Procedure: (§1) Selected iron(II) complexes were added to the suspension of the cells to give final concentrations of 1, 5, 10, 25 and 50 μM. HL-60 and A549 cells were incubated with the complexes for 2 h at 37 °C. The comet assay was performed under alkaline conditions according to the procedure of Tokarz et al.[45]. […] Next, the cells were lysed for 1 h at 4 °C in a buffer containing 2.5 M NaCl, 0.1 M EDTA, 10 mM Tris, 1% Triton X-100, pH 10. Following the lysis, the slides were placed in an electrophoresis unit. DNA was allowed to unwind for 20 min in the solution containing 300 mM NaOH and 1 mM EDTA, pH > 13. […] After separation, the slides were washed in water, drained, stained with 2 μg/ml DAPI and covered with cover slips. As a prevention from additional DNA damage, the procedure described above was conducted under limited light or in the dark. Each experiment included the positive control—cells incubated with H2O2 at 20 µM for 15 min on ice (data not shown).
(§2) The comets obtained after single cell gel electrophoresis were analysed in the following manner. […] Hundred images of singular comets were randomly selected from each sample and the mean value of DNA in comet tail was taken as an index of DNA damage (expressed in percent).

[6] = system: A549 cells; assay: Cell viability resazurin assay, A549 cells; type: cell-based, human; settings: for viability of A549 cells relative to control: ± SD
Outline: (§3)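 A549 cells (5 × 10^3/well, adhered 24 h) or HL-60 cells (1 × 10^4/well) exposed to iron(II) complexes at 0.5–250 μM for 2 h and 24 h at 37 °C. Resazurin then added for 2 h; fluorescence (ex 530, em 590 nm) expressed as percent of control, IC50 calculated, octuplicate.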

[7] = system: Genomic DNA isolated from A549 cell line; assay: DNA titration (UV-Vis absorption spectra); type: binding, human; settings: 0.5, 5 and 50 µM, 15 min, room temp.
Procedure: Genomic DNA was isolated from A549 cell line using a commercially available kit (Extractme Genomic DNA Kit, Blirt, Gdansk, Poland) following the manufacturer’s protocol. The concentration and purity of DNA were measured by BioTek Synergy HT Microplate Reader (BioTek Instruments, Winooski, VT, USA). Genomic DNA in the amount of 20 µg was incubated with complex 2b for 15 min at room temp. at concentrations 0.5, 5, and 50 µM in a final volume of 2 ml. Next UV–Vis absorbance spectra (240–300 nm) was measured by UV–Vis JASCO V-630 spectrophotometer (JASCO, Japan).

[8] = system: PBM cells; assay: Cell viability resazurin assay, PBM cells; type: cell-based, human; settings: for viability of PBM cells relative to control: ± SD
Outline: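 Human PBM cells isolated from healthy-donor buffy coats by density gradient, seeded at 5 × 10^4 per well in RPMI 1640 and exposed to iron(II) complexes at 0.5–250 μM for 2 h and 24 h at 37 °C. Resazurin added for 2 h and fluorescence read at 530/590 nm; IC50 from percentage of control, octuplicate.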

[9] = system: HL-60 cells; assay: Cell viability resazurin assay, HL-60 cells; type: cell-based, human; settings: for viability of HL-60 cells relative to control: ± SD
Outline: as §3

[10] = system: A549 cells; assay: Alkaline comet assay, A549 cells; type: cell-based, human; settings: 2 h, 50 μM
Procedure: as §1, §2

## O=C1C=CC(=O)[N-]1.[C-]#[O+].[Ru+2].c1cc[cH-]c1.c1ccc(P(c2ccccc2)c2ccccc2)cc1 [ruthenium complex 2b, CpRu(CO)(PPh3) (η^1-N-maleimidato)]
[1]; listed as 2b-Ru
  cytotoxicity toward PBM cells of ruthenium analogues, in words: cytotoxic
[1]
  IC50: 8.48 µM
[2]
  IC50: 35.6 µM

## O=S(=O)([O-])C(F)(F)F.[C-]#[O+].[Fe+2].c1cc[cH-]c1.c1ccc(Cn2ccnc2)cc1.c1ccc(P(c2ccccc2)c2ccccc2)cc1 [[CpFe(CO)(PPh3) (1-benzylimidazole)](CF3SO3)]
[3]
  IC50: 1.26 ± 0.11 µM
[4]
  IC50: 2.21 ± 0.26 µM

## O=C1C=CC(=O)[N-]1.[C-]#[O+].[Fe+2].c1cc[cH-]c1.c1coc(P(c2ccco2)c2ccco2)c1 [2b, CpFe(CO)(P(Fu)3)(η^1-N-maleimidato)]
[5]; 2 h incubation, 1-50 μM tested
  DNA damage in HL-60 cells (alkaline comet assay), in words: induced DNA damage
[5]; HL-60 cells, 2 h, 50 μM
  DNA in tail (alkaline comet assay): 6%
[6]; 2 h incubation, 0.5 µM
  viability of A549 cells relative to control: 84.30 ± 11.24%
[6]; 2 h incubation, 1 µM
  viability of A549 cells relative to control: 80.74 ± 14%
[6]; 2 h incubation, 2.5 µM
  viability of A549 cells relative to control: 82.33 ± 9.73%
[6]; 2 h incubation, 5 µM
  viability of A549 cells relative to control: 83.32 ± 11.51%
[6]; 2 h incubation, 10 µM
  viability of A549 cells relative to control: 101.28 ± 15.65%
[6]; 2 h incubation, 25 µM
  viability of A549 cells relative to control: 114.98 ± 11.35%
[6]; 2 h incubation, 50 µM
  viability of A549 cells relative to control: 123.09 ± 7.89%
[6]; 2 h incubation, 100 µM
  viability of A549 cells relative to control: 84.95 ± 8.31%
[6]; 2 h incubation, 250 µM
  viability of A549 cells relative to control: 40.75 ± 4.24%
[6]; 24 h incubation
  IC50: 73.5 µM
[6]; 24 h incubation, 0.5 µM
  viability of A549 cells relative to control: 81.57 ± 14.09%
[6]; 24 h incubation, 1 µM
  viability of A549 cells relative to control: 74.40 ± 19.47%
[6]; 24 h incubation, 2.5 µM
  viability of A549 cells relative to control: 73.54 ± 23.46%
[6]; 24 h incubation, 5 µM
  viability of A549 cells relative to control: 61.87 ± 14.65%
[6]; 24 h incubation, 10 µM
  viability of A549 cells relative to control: 87.91 ± 9.79%
[6]; 24 h incubation, 25 µM
  viability of A549 cells relative to control: 110.30 ± 11.49%
[6]; 24 h incubation, 50 µM
  viability of A549 cells relative to control: 91.31 ± 16.37%
[6]; 24 h incubation, 100 µM
  viability of A549 cells relative to control: 13.33 ± 3.51%
[6]; 24 h incubation, 250 µM
  viability of A549 cells relative to control: 1.39 ± 0.12%
[7]
  interaction with DNA (UV-Vis spectroscopic titration): does not interact in an intercalative manner with DNA
[8]; 2 h incubation, 0.5 µM
  viability of PBM cells relative to control: 98.07 ± 0.32%
[8]; 2 h incubation, 1 µM
  viability of PBM cells relative to control: 97.62 ± 0.66%
[8]; 2 h incubation, 2.5 µM
  viability of PBM cells relative to control: 96.06 ± 2.38%
[8]; 2 h incubation, 5 µM
  viability of PBM cells relative to control: 97 ± 1.29%
[8]; 2 h incubation, 10 µM
  viability of PBM cells relative to control: 96.53 ± 1.24%
[8]; 2 h incubation, 25 µM
  viability of PBM cells relative to control: 93.16 ± 4.6%
[8]; 2 h incubation, 50 µM
  viability of PBM cells relative to control: 79.21 ± 1.4%
[8]; 2 h incubation, 100 µM
  viability of PBM cells relative to control: 78.49 ± 1.24%
[8]; 2 h incubation, 250 µM
  viability of PBM cells relative to control: 75.23 ± 0.62%
[8]; 24 h incubation
  IC50: > 250 µM
[8]; 24 h incubation, 0.5 µM
  viability of PBM cells relative to control: 105.37 ± 7.62%
[8]; 24 h incubation, 1 µM
  viability of PBM cells relative to control: 101.81 ± 0.86%
[8]; 24 h incubation, 2.5 µM
  viability of PBM cells relative to control: 97.1 ± 1.83%
[8]; 24 h incubation, 5 µM
  viability of PBM cells relative to control: 94.2 ± 4.56%
[8]; 24 h incubation, 10 µM
  viability of PBM cells relative to control: 94.94 ± 2.09%
[8]; 24 h incubation, 25 µM
  viability of PBM cells relative to control: 88.93 ± 2.18%
[8]; 24 h incubation, 50 µM
  viability of PBM cells relative to control: 85.34 ± 2.58%
[8]; 24 h incubation, 100 µM
  viability of PBM cells relative to control: 83.38 ± 3.4%
[8]; 24 h incubation, 250 µM
  viability of PBM cells relative to control: 77.59 ± 2.06%
[9]; 2 h incubation, 0.5 µM
  viability of HL-60 cells relative to control: 106.51 ± 2.33%
[9]; 2 h incubation, 1 µM
  viability of HL-60 cells relative to control: 106.74 ± 1.35%
[9]; 2 h incubation, 2.5 µM
  viability of HL-60 cells relative to control: 103.04 ± 1.98%
[9]; 2 h incubation, 5 µM
  viability of HL-60 cells relative to control: 104.72 ± 2.62%
[9]; 2 h incubation, 10 µM
  viability of HL-60 cells relative to control: 104.03 ± 2.08%
[9]; 2 h incubation, 25 µM
  viability of HL-60 cells relative to control: 95.86 ± 2.66%
[9]; 2 h incubation, 50 µM
  viability of HL-60 cells relative to control: 90.45 ± 0.98%
[9]; 2 h incubation, 100 µM
  viability of HL-60 cells relative to control: 76.15 ± 3.1%
[9]; 2 h incubation, 250 µM
  viability of HL-60 cells relative to control: 21.23 ± 1.56%
[9]; 24 h incubation
  IC50: 10 µM
[9]; 24 h incubation, 0.5 µM
  viability of HL-60 cells relative to control: 107.57 ± 3.87%
[9]; 24 h incubation, 1 µM
  viability of HL-60 cells relative to control: 105.5 ± 3.13%
[9]; 24 h incubation, 2.5 µM
  viability of HL-60 cells relative to control: 97.63 ± 0.5%
[9]; 24 h incubation, 5 µM
  viability of HL-60 cells relative to control: 79.34 ± 1.21%
[9]; 24 h incubation, 10 µM
  viability of HL-60 cells relative to control: 51.6 ± 1.43%
[9]; 24 h incubation, 25 µM
  viability of HL-60 cells relative to control: 38.21 ± 0.22%
[9]; 24 h incubation, 50 µM
  viability of HL-60 cells relative to control: 35.8 ± 2.09%
[9]; 24 h incubation, 100 µM
  viability of HL-60 cells relative to control: 25.41 ± 1.92%
[9]; 24 h incubation, 250 µM
  viability of HL-60 cells relative to control: 17.52 ± 1.12%
[10]
  percentage of DNA damage in tail (alkaline comet assay): about 2%

## O=C1C=CC(=O)[N-]1.[C-]#[O+].[Ru+2].c1cc[cH-]c1.c1ccc(P(c2ccccc2)c2ccccc2)cc1 [2a-Ru]
[1]
  cytotoxicity toward PBM cells of ruthenium analogues, in words: non-toxic

## CCOP(OCC)OCC.O=C1C=CC(=O)[N-]1.[C-]#[O+].[Ru+2].c1cc[cH-]c1 [ruthenium(II) complex 3a, CpRu(CO)(P(OEt)3)(η^1-N-maleimidato)]
[1]
  IC50: > 250 µM
[2]
  IC50: 12.2 µM
